Measurements taken from patent US20050163707A1, “Cancer treatment” (priority 2002, published 2005).

Experiments:
[1] = tested on: HT1376 bladder tumour xenografts; assay: Tumour volume tripling time of HT1376 xenografts in nude mice after 90Y-hHMFG1 radioimmunotherapy and/or chemotherapy; type: in vivo, mouse (human tumour xenograft); details: for T-C value: Cisplatin combined with 1.2 MBq radioimmunotherapy
Protocol: (§1) The human bladder tumour cell line, HT1376, and the human colon tumour cell line HT29 expressing polymorphic epithelial mucin (PEM) were cultured in RPMI 1640 tissue culture medium containing 100 U·ml^−1 penicillin and 100 μg·ml^−1 streptomycin, supplemented with 10% foetal calf serum in a humidified atmosphere of 5% carbon dioxide in air. HT1376 is a human bladder carcinoma cell line obtained from the European Collection of Animal Cell Cultures (ECACC no. 87032402). HT29 is human colon carcinoma cell line obtained from European Collection of Animal Cell Cultures (ECACC no. 91072201).
(§2) The fully humanised version of the anti-PEM antibody, HMFG1, was produced by Lonza, Slough, UK. This humanised HMFG1 (hHMFG1) was conjugated with the chelating agent […] by BioInvent, Sweden.
(§3) CITC-DTPA-conjugated hHMFG1 was radiolabelled with ^90Y in acetate buffer (pH 5.5) at room temperature for 30 minutes. Disodium EDTA was added to the reaction mixture such that the final EDTA concentration was 5 mM and left to stand at room temperature for approximately 10 min. The radiolabelled protein was then purified by size exclusion chromatography and the protein-containing fractions pooled.
(§4) Female MF1 athymic nude (nu/nu) mice were used throughout these studies. The mice were bred at the Biological Research Facility of St. George's Hospital Medical School and were housed in sterile filter cages and maintained on irradiated diet and sterile water. Tumours were established by subcutaneous injection of 5×10^6 cells in the right flank.
(§5) Humanised HMFG1 anti-PEM antibody (previously conjugated with the chelating agent CITC-DTPA) was radiolabelled with yttrium-90 (^90Y) to a specific activity of approximately 1-2 MBq per 10 μg. Mice received approximately 10 μg of protein by intravenous injection.
(§6) For combination therapy, the drug and radioimmunotherapy (RIT) were given by sequential injections into the two lateral tail veins. The drug was given either 24 h before or 24 h after the RIT. In the case of Cisplatin, this was also given at the same time as the RIT. Control mice were untreated.
(§7) Approximately three weeks after tumour inoculation, when the tumours were around 0.2 cm^3 in volume (7-8 mm in diameter), mice were divided into treatment groups of 7-8 mice each. […] Mice were injected with various doses of ^90Y-labelled hHMFG1 radioimmunotherapy (10-20 μg, 1.2-2.0 MBq) either alone or in combination with the test drug given either 24 h before or 24 h after radioimmunotherapy, or with chemotherapy or chemotherapy vehicle alone. One group of mice was left untreated as a control on some occasions when experimental animals were treated. Tumour diameters (d1, d2 and d3) were measured twice weekly in three orthogonal directions using a vernier calliper and the tumour volume (v) calculated according to the formula for an ellipsoid: [formula]
(§8) Relative tumour volume (the volume of each tumour divided by the tumour volume on the day of treatment) was calculated to minimise the effect of variation in treatment volume of the individual tumours. The end-point was defined as time for the relative tumour volume to reach 3.
(§9) The Wilcoxon rank sum test was used to compare the groups of mice receiving the various treatment protocols. A p-value <0.05 was considered to be significant.

[2] = tested on: mouse model of breast cancer; details: cited from earlier work
[3] = tested on: HT29 colon tumour xenografts; assay: Tumour volume tripling time of HT29 xenografts in nude mice after 90Y-hHMFG1 radioimmunotherapy and/or chemotherapy; type: in vivo, mouse (human tumour xenograft); details: for Median volume tripling time / T-C (treated minus control tripling time): 90Y-hHMFG1 1.4 MBq, combinations 24 h apart; for Most effective treatment schedule / Effect of drug combined with radioimmunotherapy (in words): Table 2; for Most effective treatment schedule: drug combined with 90Y-hHMFG1 radioimmunotherapy
Protocol: as §1, §2, §3, §4, §5, §6, §7, §8, §9

[4] = Table 2, HT1376 Cisplatin, Observer 1, control 21.9, 90Y-hHMFG1 1.2 MBq, Cisplatin 10 mg/kg, drug at -24 h, 0 h or +24 h relative to RIT
[5] = Table 2, HT1376 Cisplatin, Observer 1, control 21.9, 90Y-hHMFG1 1.4 MBq, Cisplatin 2 mg/kg, combination at 0 h
[6] = Table 2, HT1376 Cisplatin, Observer 1, control 21.9, 90Y-hHMFG1 1.4 MBq, Cisplatin 10 mg/kg, combination drug -24 h
[7] = Table 1, group with Control (25-26) 19.0, each drug 10 mg/kg i.v. alone
[8] = Table 1, group with Control (18-19) 17.9, Taxotere 10 mg/kg i.v., 90Y-hHMFG1 1.2 MBq i.v., combination of both
[9] = Table 2, HT1376 Taxotere, Observer 1, control 21.9, 90Y-hHMFG1 1.2 MBq, Taxotere 10 mg/kg, combinations 24 h apart
[10] = Table 2, HT29 cyclophosphamide, Observer 1, control 10.2, cyclo 200 mg/kg
[11] = Table 2, HT29 cyclophosphamide, Observer 2, control 10.7, cyclo 200 mg/kg
[12] = drug given after the 90Y-hHMFG1 radioimmunotherapy
[13] = Table 2, HT29 gemcitabine, Observer 1, control 8.8, gemcitabine 240 mg/kg
[14] = Table 2, HT29 gemcitabine, Observer 2, control 9.5, gemcitabine 240 mg/kg
[15] = Table 2, HT29 vincristine, Observer 1, control 10.2, vincristine 2 mg/kg

N.N.[Cl][Pt][Cl] [Cisplatin]
Median volume tripling time [1, 4]: 28.8 days
T-C (treated minus control tripling time) [1, 4]: 6.9 days
Median volume tripling time [1, 5]: 28.9 days
T-C (treated minus control tripling time) [1, 5]: 7.0 days
Median volume tripling time [1, 6]: 28.8 days
T-C (treated minus control tripling time) [1, 6]: 6.9 days
T-C, combined addition of the drugs administered individually ([1]; Table 2, 1.2 MBq 90Y-hHMFG1 alone plus Cisplatin 10 mg/kg alone): 7.9
T-C value ([1]; Table 2, first dosage regime (drug -24 h per Table 2)): 44
T-C value ([1]; Table 2, second dosage regime (0 h per Table 2)): 36.5
T-C value ([1]; Table 2, third dosage regime (drug +24 h per Table 2)): 15.5
Most effective treatment schedule ([1]; Table 2, drug combined with 90Y-hHMFG1 radioimmunotherapy): administer the drug 24 hours before the radioimuunotherapy
Effect of drug combined with radioimmunotherapy (in words) ([1]; Table 2, with 90Y-hHMFG1, no matter the order of administering): synergistic effect

COc1cccc2c1C(=O)c1c(O)c3c(c(O)c1C2=O)C[C@@](O)(C(=O)CO)C[C@@H]3O[C@H]1C[C@H](N)[C@H](O)[C@H](C)O1 [Dox]
T-C (treated minus control tripling time) [1, 7]: 33.9 days
Median volume tripling time ([1]; in vivo): 52.9 days

CC(=O)O[C@H]1C(=O)[C@@]2(C)[C@H]([C@H](OC(=O)c3ccccc3)[C@]3(O)C[C@H](OC(=O)[C@H](O)[C@@H](NC(=O)c4ccccc4)c4ccccc4)C(C)=C1C3(C)C)[C@]1(OC(C)=O)CO[C@@H]1C[C@@H]2O [Taxol ®, paclitaxel]
Optimum time for Taxol administration after 90Y-ChL6 [2]: 6 to 24 h
Median volume tripling time [1, 7]: 30.2 days
T-C (treated minus control tripling time) [1, 7]: 11.2 days

CC(=O)O[C@@]12CO[C@@H]1C[C@H](O)[C@@]1(C)C(=O)[C@H](O)C3=C(C)[C@@H](OC(=O)[C@H](O)[C@@H](NC(=O)OC(C)(C)C)c4ccccc4)C[C@@](O)([C@@H](OC(=O)c4ccccc4)[C@H]21)C3(C)C [Taxotere ®, Docetaxel]
Median volume tripling time [1, 8]: 43.8 days
T-C (treated minus control tripling time) [1, 8]: 25.9 days
Median volume tripling time [1, 7]: 41.2 days
T-C (treated minus control tripling time) [1, 7]: 22.2 days
Median volume tripling time [1, 9]: 43.5 days
T-C (treated minus control tripling time) [1, 9]: 21.6 days

O=P1(N(CCCl)CCCl)NCCCO1 (stereo not shown) [cyclo, Cyclophosphamide]
Median volume tripling time [3, 10]: 15.5 days
T-C (treated minus control tripling time) [3, 10]: 5.3 days
Median volume tripling time [3, 11]: 14.1 days
T-C (treated minus control tripling time) [3, 11]: 3.4 days
Most effective treatment schedule [3]: most effective when given after the radioimmunotherapy
Effect of drug combined with radioimmunotherapy (in words) [3, 12]: synergistic effect over the mere additive effect

Nc1ccn([C@@H]2O[C@H](CO)[C@@H](O)C2(F)F)c(=O)n1 [gemcitabine, Gemcitabine]
Median volume tripling time [3, 13]: 15.4 days
T-C (treated minus control tripling time) [3, 13]: 6.6 days
Median volume tripling time [3, 14]: 12.8 days
T-C (treated minus control tripling time) [3, 14]: 3.3 days
Effect of drug combined with radioimmunotherapy (in words) ([3]; drug and 90Y-hHMFG1 radioimmunotherapy given in combination): overall increase in T-C values

CC[C@]1(O)C[C@H]2CN(CCc3c([nH]c4ccccc34)[C@@](C(=O)OC)(c3cc4c(cc3OC)N(C=O)[C@H]3[C@@](O)(C(=O)OC)[C@H](OC(C)=O)[C@]5(CC)C=CCN6CC[C@]43[C@@H]65)C2)C1 [vincristine, Vincristine]
Median volume tripling time [3, 15]: 13.4 days
T-C (treated minus control tripling time) [3, 15]: 3.2 days
T-C (treated minus control tripling time) ([3]; Table 2, HT29 vincristine, Observer 2, control 10.7, vincristine 2 mg/kg): 4.0 days
Effect of drug combined with radioimmunotherapy (in words) ([3]; drug administered before the 90Y-hHMFG1 radioimmunotherapy): also effective when administered before the radioimmunotherapy although to a slightly lesser extent
Most effective treatment schedule [3]: most effective when given after the radioimmunotherapy
Effect of drug combined with radioimmunotherapy (in words) [3, 12]: synergistic effect over the mere additive effect
